# Laboratory results taken from patent US6355799B1, “Substituted benzene compounds, process for their preparation, and herbicidal and defoliant compositions containing them” (ISK Americas Incorporated, priority 1997, dated 2002).
# Assays:
# Format in all cases: in vivo
# [1] = test system: redroot pigweed (Amaranthus retroflexus, AMARE); test: Pre-emerge test, greenhouse herbicide activity screening; details: for phytotoxicity rating AMARE: pre-emerge, 14 days after application, rating scale 0-100; for Pre-emerge Herbicidal Activity AMARE: phytotoxicity rating 0-100, 14 days after application
# Procedure, shortened: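 Herbicidal damage is scored 0 (none) to 100 (complete plant death) two weeks after a simulated field spray. Rates span 15–1000 g ai/ha, delivered in acetone at 187 l/ha. For post-emergence treatments, plants have 2–3 leaves and the spray carries 0.25% v/v non-ionic surfactant.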
# [2] = test system: barnyardgrass (Echinochloa crus-galli, ECHCG); test: as above; details: for phytotoxicity rating ECHCG: pre-emerge, 14 days after application, rating scale 0-100; for Pre-emerge Herbicidal Activity ECHCG: phytotoxicity rating 0-100, 14 days after application
# Procedure, shortened: (§1)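 Visual ratings on a 0-100 scale (0 no damage, 100 all plants dead) were taken at 14 days after treatment. Rates of 15-1000 g ai/ha in acetone, 187 l/ha, were sprayed onto soil one day after planting (pre-emerge) or onto 2-3 leaf plants with 0.25% v/v surfactant (post-emerge).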
# [3] = test system: common ragweed (Ambrosia artemisizfolia L., AMBEL); test: as above; details: for phytotoxicity rating AMBEL: pre-emerge, 14 days after application, rating scale 0-100; for Pre-emerge Herbicidal Activity AMBEL: phytotoxicity rating 0-100, 14 days after application
# Procedure, shortened: as §1
# [4] = test system: green foxtail (Setaria viridis, SETVI); test: as above; details: for phytotoxicity rating SETVI: pre-emerge, 14 days after application, rating scale 0-100; for Pre-emerge Herbicidal Activity SETVI: phytotoxicity rating 0-100, 14 days after application
# Procedure, shortened: as §1
# [5] = test system: ivyleaf morningglory (Ipomoea hederacea, IPOHE); test: as above; details: for phytotoxicity rating IPOHE: pre-emerge, 14 days after application, rating scale 0-100; for Pre-emerge Herbicidal Activity IPOHE: phytotoxicity rating 0-100, 14 days after application
# Procedure, shortened: as §1
# [6] = test system: johnsongrass (Sorghum halepense, SORHA); test: as above; details: for phytotoxicity rating SORHA: pre-emerge, 14 days after application, rating scale 0-100; for Pre-emerge Herbicidal Activity SORHA: phytotoxicity rating 0-100, 14 days after application
# Procedure, shortened: as §1
# [7] = test system: lambsquarters (Chenopodium album, CHEAL); test: as above; details: for phytotoxicity rating CHEAL: pre-emerge, 14 days after application, rating scale 0-100; for Pre-emerge Herbicidal Activity CHEAL: phytotoxicity rating 0-100, 14 days after application
# Procedure, shortened: as §1
# [8] = test system: large crabgrass (Digitaria sanguinalis, DIGSA); test: as above; details: for phytotoxicity rating DIGSA: pre-emerge, 14 days after application, rating scale 0-100; for Pre-emerge Herbicidal Activity DIGSA: phytotoxicity rating 0-100, 14 days after application
# Procedure, shortened: as §1
# [9] = test system: sicklepod (Cassia obtusifolia, CASOB); test: as above; details: for phytotoxicity rating CASOB: pre-emerge, 14 days after application, rating scale 0-100; for Pre-emerge Herbicidal Activity CASOB: phytotoxicity rating 0-100, 14 days after application
# Procedure, shortened: as §1
# [10] = test system: velvetleaf (Abutilon theophrasti, ABUTH); test: as above; details: for phytotoxicity rating ABUTH: pre-emerge, 14 days after application, rating scale 0-100; for Pre-emerge Herbicidal Activity ABUTH: phytotoxicity rating 0-100, 14 days after application
# Procedure, shortened: as §1
# [11] = test system: field corn (Zea mays L., var. Dekalb 535, CORN); test: Pre-emerge test, crop safety; details: for phytotoxicity rating CORN: pre-emerge, 14 days after application, rating scale 0-100; for Pre-emerge Herbicidal Activity CORN: crop damage rating 0-100, 14 days after application
# Procedure, shortened: (§2)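 Compounds in acetone were track-sprayed at 187 l/ha, 15–1000 g ai/ha, onto sandy loam pots. Pre-emerge seeds were sown one day before spraying, with surface watering afterwards. Post-emerge plants were at the 2–3 leaf stage and sprayed with 0.25% v/v non-ionic surfactant. Injury was rated 0–100 at 14 days.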
# [12] = test system: upland rice (Oryza sp., var. Tebonnet, RICE); test: Pre-emerge test, crop safety; details: for phytotoxicity rating RICE: pre-emerge, 14 days after application, rating scale 0-100; for Pre-emerge Herbicidal Activity RICE: crop damage rating 0-100, 14 days after application
# Procedure, shortened: as §2
# [13] = test system: barnyardgrass (Echinochloa crus-galli, ECHCG); test: Post-emerge test, greenhouse herbicide activity screening; details: post-emerge, 14 days after application, rating scale 0-100
# Procedure, shortened: (§3)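 Applied at 15–1000 g ai/ha from acetone in 187 l/ha spray volume. Post-emergence applications included 0.25% v/v non-ionic surfactant and reached plants sown 8–21 days before. Pre-emergence applications were incorporated by surface watering. Efficacy or crop damage was rated on a 0–100 scale after 14 days.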
# [14] = test system: green foxtail (Setaria viridis, SETVI); test: as above; details: post-emerge, 14 days after application, rating scale 0-100
# Procedure, shortened: as §3
# [15] = test system: ivyleaf morningglory (Ipomoea hederacea, IPOHE); test: as above; details: post-emerge, 14 days after application, rating scale 0-100
# Procedure, shortened: as §3
# [16] = test system: johnsongrass (Sorghum halepense, SORHA); test: as above; details: post-emerge, 14 days after application, rating scale 0-100
# Procedure, shortened: as §3
# [17] = test system: lambsquarters (Chenopodium album, CHEAL); test: as above; details: post-emerge, 14 days after application, rating scale 0-100
# Procedure, shortened: as §3
# [18] = test system: large crabgrass (Digitaria sanguinalis, DIGSA); test: as above; details: post-emerge, 14 days after application, rating scale 0-100
# Procedure, shortened: as §3
# [19] = test system: redroot pigweed (Amaranthus retroflexus, AMARE); test: as above; details: post-emerge, 14 days after application
# Procedure, shortened: as §3
# [20] = test system: sicklepod (Cassia obtusifolia, CASOB); test: as above; details: post-emerge, 14 days after application, rating scale 0-100
# Procedure, shortened: as §3
# [21] = test system: velvetleaf (Abutilon theophrasti, ABUTH); test: as above; details: post-emerge, 14 days after application, rating scale 0-100
# Procedure, shortened: as §3
# [22] = test system: field corn (Zea mays L., var. Dekalb 535, CORN); test: Post-emerge test, crop safety; details: post-emerge, 14 days after application, rating scale 0-100
# Procedure, shortened: as §1
# [23] = test system: upland rice (Oryza sp., var. Tebonnet, RICE); test: Post-emerge test, crop safety; details: post-emerge, 14 days after application, rating scale 0-100
# Procedure, shortened: as §1
# [24] = 63 g ai/ha, rating scale 0-100 (0 no damage, 100 complete death)
# [25] = 250 g ai/ha, rating scale 0-100
smiles,measurement,setting,value
CCOC(=O)C(Cl)Cc1c(OC)c(Cl)cc(F)c1-n1nc(C(F)(F)F)n(C)c1=O (centres unmarked) [14-61],phytotoxicity rating AMARE,[1]; 63 g ai/ha,30
same,phytotoxicity rating AMARE,[1]; 250 g ai/ha,95
same,phytotoxicity rating ECHCG,[2]; 63 g ai/ha,0
same,phytotoxicity rating ECHCG,[2]; 250 g ai/ha,0
same,phytotoxicity rating AMBEL,[3]; 63 g ai/ha,0
same,phytotoxicity rating AMBEL,[3]; 250 g ai/ha,0
same,phytotoxicity rating SETVI,[4]; 63 g ai/ha,0
same,phytotoxicity rating SETVI,[4]; 250 g ai/ha,60
same,phytotoxicity rating IPOHE,[5]; 63 g ai/ha,0
same,phytotoxicity rating IPOHE,[5]; 250 g ai/ha,20
same,phytotoxicity rating SORHA,[6]; 63 g ai/ha,0
same,phytotoxicity rating SORHA,[6]; 250 g ai/ha,20
same,phytotoxicity rating CHEAL,[7]; 63 g ai/ha,0
same,phytotoxicity rating CHEAL,[7]; 250 g ai/ha,80
same,phytotoxicity rating DIGSA,[8]; 63 g ai/ha,0
same,phytotoxicity rating DIGSA,[8]; 250 g ai/ha,40
same,phytotoxicity rating CASOB,[9]; 63 g ai/ha,0
same,phytotoxicity rating CASOB,[9]; 250 g ai/ha,0
same,phytotoxicity rating ABUTH,[10]; 63 g ai/ha,0
same,phytotoxicity rating ABUTH,[10]; 250 g ai/ha,40
same,phytotoxicity rating CORN,[11]; 63 g ai/ha,0
same,phytotoxicity rating CORN,[11]; 250 g ai/ha,0
same,phytotoxicity rating RICE,[12]; 63 g ai/ha,0
same,phytotoxicity rating RICE,[12]; 250 g ai/ha,0
same,Post-emerge Herbicidal Activity ECHCG (phytotoxicity rating),[13]; 63 g ai/ha,0
same,Post-emerge Herbicidal Activity ECHCG (phytotoxicity rating),[13]; 250 g ai/ha,60
same,Post-emerge Herbicidal Activity SETVI (phytotoxicity rating),[14]; 63 g ai/ha,0
same,Post-emerge Herbicidal Activity SETVI (phytotoxicity rating),[14]; 250 g ai/ha,20
same,Post-emerge Herbicidal Activity IPOHE (phytotoxicity rating),[15]; 63 g ai/ha,20
same,Post-emerge Herbicidal Activity IPOHE (phytotoxicity rating),[15]; 250 g ai/ha,50
same,Post-emerge Herbicidal Activity SORHA (phytotoxicity rating),[16]; 63 g ai/ha,0
same,Post-emerge Herbicidal Activity SORHA (phytotoxicity rating),[16]; 250 g ai/ha,20
same,Post-emerge Herbicidal Activity CHEAL (phytotoxicity rating),[17]; 63 g ai/ha,40
same,Post-emerge Herbicidal Activity CHEAL (phytotoxicity rating),[17]; 250 g ai/ha,75
same,Post-emerge Herbicidal Activity DIGSA (phytotoxicity rating),[18]; 63 g ai/ha,0
same,Post-emerge Herbicidal Activity DIGSA (phytotoxicity rating),[18]; 250 g ai/ha,70
same,Post-emerge Herbicidal Activity AMARE (phytotoxicity rating),[19]; [24],20
same,Post-emerge Herbicidal Activity AMARE (phytotoxicity rating),[19]; [25],60
same,Post-emerge Herbicidal Activity CASOB (phytotoxicity rating),[20]; 63 g ai/ha,0
same,Post-emerge Herbicidal Activity CASOB (phytotoxicity rating),[20]; 250 g ai/ha,30
same,Post-emerge Herbicidal Activity ABUTH (phytotoxicity rating),[21]; 63 g ai/ha,30
same,Post-emerge Herbicidal Activity ABUTH (phytotoxicity rating),[21]; 250 g ai/ha,60
same,Post-emerge Herbicidal Activity CORN (crop damage rating),[22]; 63 g ai/ha,0
same,Post-emerge Herbicidal Activity CORN (crop damage rating),[22]; 250 g ai/ha,70
same,Post-emerge Herbicidal Activity RICE (crop damage rating),[23]; 63 g ai/ha,0
same,Post-emerge Herbicidal Activity RICE (crop damage rating),[23]; 250 g ai/ha,30
Cn1c(C(F)(F)F)cc(=O)n(-c2c(F)cc(Cl)c(OCC#N)c2NC(=O)c2ccc3ccccc3c2)c1=O [2-200],Pre-emerge Herbicidal Activity AMARE,[1]; 63 g ai/ha,100
same,Pre-emerge Herbicidal Activity AMARE,[1]; 250 g ai/ha,100
same,Pre-emerge Herbicidal Activity ECHCG,[2]; 63 g ai/ha,99
same,Pre-emerge Herbicidal Activity ECHCG,[2]; 250 g ai/ha,100
same,Pre-emerge Herbicidal Activity AMBEL,[3]; 63 g ai/ha,100
same,Pre-emerge Herbicidal Activity AMBEL,[3]; 250 g ai/ha,100
same,Pre-emerge Herbicidal Activity SETVI,[4]; 63 g ai/ha,100
same,Pre-emerge Herbicidal Activity SETVI,[4]; 250 g ai/ha,100
same,Pre-emerge Herbicidal Activity IPOHE,[5]; 63 g ai/ha,100
same,Pre-emerge Herbicidal Activity IPOHE,[5]; 250 g ai/ha,100
same,Pre-emerge Herbicidal Activity SORHA,[6]; 63 g ai/ha,100
same,Pre-emerge Herbicidal Activity SORHA,[6]; 250 g ai/ha,100
same,Pre-emerge Herbicidal Activity CHEAL,[7]; 63 g ai/ha,100
same,Pre-emerge Herbicidal Activity CHEAL,[7]; 250 g ai/ha,100
same,Pre-emerge Herbicidal Activity DIGSA,[8]; 63 g ai/ha,100
same,Pre-emerge Herbicidal Activity DIGSA,[8]; 250 g ai/ha,100
same,Pre-emerge Herbicidal Activity CASOB,[9]; 63 g ai/ha,80
same,Pre-emerge Herbicidal Activity CASOB,[9]; 250 g ai/ha,100
same,Pre-emerge Herbicidal Activity ABUTH,[10]; 63 g ai/ha,100
same,Pre-emerge Herbicidal Activity ABUTH,[10]; 250 g ai/ha,100
same,Pre-emerge Herbicidal Activity CORN,[11]; 63 g ai/ha,75
same,Pre-emerge Herbicidal Activity CORN,[11]; 250 g ai/ha,100
same,Pre-emerge Herbicidal Activity RICE,[12]; 63 g ai/ha,80
same,Pre-emerge Herbicidal Activity RICE,[12]; 250 g ai/ha,100
same,phytotoxicity rating ECHCG,[13]; 63 g ai/ha,0
same,phytotoxicity rating ECHCG,[13]; 250 g ai/ha,0
same,phytotoxicity rating SETVI,[14]; 63 g ai/ha,30
same,phytotoxicity rating SETVI,[14]; 250 g ai/ha,50
same,phytotoxicity rating IPOHE,[15]; 63 g ai/ha,100
same,phytotoxicity rating IPOHE,[15]; 250 g ai/ha,100
same,phytotoxicity rating SORHA,[16]; 63 g ai/ha,0
same,phytotoxicity rating SORHA,[16]; 250 g ai/ha,0
same,phytotoxicity rating CHEAL,[17]; 63 g ai/ha,100
same,phytotoxicity rating CHEAL,[17]; 250 g ai/ha,100
same,phytotoxicity rating DIGSA,[18]; 63 g ai/ha,0
same,phytotoxicity rating DIGSA,[18]; 250 g ai/ha,0
same,phytotoxicity rating AMARE,[19]; [24],100
same,phytotoxicity rating AMARE,[19]; [25],100
same,phytotoxicity rating CASOB,[20]; 63 g ai/ha,100
same,phytotoxicity rating CASOB,[20]; 250 g ai/ha,100
same,phytotoxicity rating ABUTH,[21]; 63 g ai/ha,100
same,phytotoxicity rating ABUTH,[21]; 250 g ai/ha,100
same,phytotoxicity rating CORN (crop damage),[22]; 63 g ai/ha,10
same,phytotoxicity rating CORN (crop damage),[22]; 250 g ai/ha,20
same,phytotoxicity rating RICE (crop damage),[23]; 63 g ai/ha,10
same,phytotoxicity rating RICE (crop damage),[23]; 250 g ai/ha,20
